Legend:
Leishmania amazonensis [1] = test: Antileishmanial activity against leishmania amazonensis promastigotes MHOM/BR/77/LTB0016 assessed as parasite growth inhibition incubated for 72 hrs by resazurin dye based analysis; type: functional, organism-based; settings: MHOM/BR/77/LTB0016, 72 h
[2] = Cytotoxicity against mouse Peritoneal macrophage cell assessed as inhibition of cell viability incubated for 72 hrs by resazurin dye based analysis; type: toxicity; settings: peritoneal macrophages
Leishmania amazonensis [3] = test: Antileishmanial activity against leishmania amazonensis intracellular amastigotes assessed as parasite growth inhibition measured after 72 hrs by hematological dye based microscopic analysis; type: functional, organism-based
[4] = Selectivity index, ratio of CC50 for cytotoxicity against murine peritoneal macrophages assessed as inhibition of cell viability to IC50 for antileishmanial activity against leishmania amazonensis intracellular amastigotes assessed as parasite growth inhibition; type: toxicity, cell-based, Macrophage; settings: mouse, read-out: Ratio CC50/IC50

Row | Compound | IC50 (Leishmania amazonensis [1]) [µM] | CC50 at 72 h [2] [µM] | IC50 (Leishmania amazonensis [3]) [µM] | selectivity ratio [4]
1 | CC1(Cc2ccccc2)CC(C(=O)NC2CCCC2)=C(c2ccc(/C(N)=N/O)cc2)O1 (stereo unspecified) | 61.1 |  |  | 
2 | CC1(Cc2ccccc2)CC(C(=O)N2CCOCC2)=C(c2ccc(/C(N)=N/O)cc2)O1 (stereo unspecified) | > 128 |  |  | 
3 | CC1(Cc2ccccc2)CC(S(C)(=O)=O)=C(c2ccc(/C(N)=N/O)cc2)O1 (stereo unspecified) | 91.4 |  |  | 
4 | CCOC(=O)C1=C(c2ccc(/C(N)=N/O)cc2)OC(C)(Cc2ccccc2)C1 (stereo unspecified) | 6.3 | 112 | 1.3 | 87.8
5 | CC1(Cc2ccccc2)CC(C(=O)NCCN2CCCC2)=C(c2ccc(/C(N)=N/O)cc2)O1 (stereo unspecified) | 102 |  |  | 
6 | CCCCNC(=O)C1=C(c2ccc(/C(N)=N/O)cc2)OC(C)(Cc2ccccc2)C1 (stereo unspecified) | 92.6 |  |  | 
7 | COC(=O)C1=C(c2ccc(/C(N)=N/O)cc2)OC(C)(Cc2ccccc2)C1 (stereo unspecified) | 4.7 | 70.6 | 2.3 | 30.7
8 | CCCCS(=O)(=O)C1=C(c2ccc(/C(N)=N/O)cc2)OC(C)(Cc2ccccc2)C1 (stereo unspecified) | 63.5 |  |  | 
9 | CCN(CC)C(=O)C1=C(c2ccc(/C(N)=N/O)cc2)OC(C)(Cc2ccccc2)C1 (stereo unspecified) | 60.4 |  |  | 
10 | CC1(Cc2ccccc2)CC(C(=O)NC2CCCCC2)=C(c2ccc(/C(N)=N/O)cc2)O1 (stereo unspecified) | 43.6 |  |  | 
